{"source": "patent US20160368943A1", "about": "“SUBSTITUTED PURINE COMPOUNDS” (EPIZYME, INC., priority 2013, published 2016)", "key": {"[1]": {"test": "Metabolite profiling in liver microsomes with NADPH and UDPGA, rat", "assay_type": "in vitro ADME", "details": "Compound A 10 μM, 20 min", "procedure": "(§1) Compound A was incubated with liver microsomes of various species (mouse, rat, dog or human). […] For all liver microsomal incubations, samples were taken at 0 and 20 minutes. All samples were quenched by using acetonitrile/methanol solution and analyzed using an LC-MS/MS Q-Trap system (AB Sciex, Framingham, Mass.).\n(§2) The corresponding product ion tandem mass spectra of Compound A and its metabolites were obtained by using enhanced product ion (EPI) scans during positive ion electrospray. The possible chemical structures of the metabolites were deduced based on their MS1 and MS2 spectra."}, "[2]": {"test": "MDCK cell permeability, native cells", "assay_type": "in vitro ADME", "details": "dog, Basolateral-to-apical", "procedure": "Samples were taken from the donor and receiver chambers at 120 minutes. Each determination was performed in duplicate. Co-dosed lucifer yellow flux was also measured for each monolayer to ensure cell monolayers remained intact during the incubation. All samples were assayed by LC-MS/MS."}, "[3]": {"test": "Hepatocyte stability, mouse", "assay_type": "in vitro ADME, CD-1 mouse", "procedure": "(§3) Human, Beagle dog, Sprague-Dawley rat, and CD-1 mouse cryopreserved hepatocytes were obtained from XenoTech and stored at −150° C. until use. The hepatocytes were thawed and prepared according to the vendor's instructions, pooled into Krebs Henseleit buffer (KHB, pH 7.4), and kept on ice prior to initiating an experiment. […] The reaction mixture was incubated in a shaking water bath at 37° C. Aliquots of the incubation solutions were sampled at 0, 15, 30, 60, and 120 minutes. The reaction was immediately terminated by the addition of three volumes of ice-cold acetonitrile containing 0.1% formic acid and internal standards. After centrifugation at 1640×g for 10 minutes, the supernatants were transferred into HPLC vials, and the test compound was analyzed by LC-MS/MS. Positive controls, testosterone (20 μM) and 7-hydroxycoumarin (100 μM), were performed in parallel to confirm the enzyme activities of the hepatocytes used.\n(§4) Experimental half-lives were transformed to the corresponding intrinsic clearance values and subsequently scaled to predicted in vivo clearance values, using the well-stirred model as previously described (Houston, Biochemical Pharmacology 47(9): 1469-1479, 1994; Obach, Drug Metabolism and Disposition 27(11): 1350-1359, 1999), with appropriate species-specific scaling factors (Barter et al., Current Drug Metabolism 8(1): 33-45, 2007)."}, "[4]": {"test": "Hepatocyte stability, human", "assay_type": "in vitro ADME", "procedure": "as §3, §4"}, "[5]": {"test": "Metabolite profiling in liver microsomes with NADPH and UDPGA, human", "assay_type": "in vitro ADME", "details": "Compound A 10 μM, 20 min", "procedure": "as §1, §2"}, "[6]": {"test": "Pharmacokinetic study in dog", "assay_type": "in vivo, Beagle dog", "details": "1 mg/kg", "procedure": "IV doses were administered by a single intravenous infusion over 1 minute into the cephalic vein in a 10% ethanol and 90% saline vehicle. At designated time points (predose, 0.083, 0.25, 0.5, 1, 2, 4, 8 and 24 h p.d.), the animals were restrained manually, and approximately 0.5 mL blood per time point was collected from non-injected cephalic vein into pre-cold EDTA-K2 tubes. Blood samples were put on wet ice and centrifuged at 4° C. to obtain plasma within 15 minutes of sample collection. The levels of Compound A were quantitated in dog plasma by LC-MS/MS analysis. […] Typically, samples were injected onto an LC-MS/MS system using a Waters BEH Phenyl column. The aqueous mobile phase was water with 0.1% NH4OH (A), and the organic mobile phase was acetonitrile with 0.1% NH4OH (B). The gradient was as follows: 37% B for the first 0.2 min, increased to 44% B from 0.2 to 0.6 min, maintained at 44% B for 0.5 min, and decreased to 37% B within 0.05 min. The injection volume was 2 uL, and the total run time was 1.5 min with a flow rate of 0.6 mL/min. […] The ionization was conducted in the positive ion mode using the MRM transition [M+H]+m/z 563.5 parent ion to m/z 326.3 daughter ion, incorporating a turbo-ionspray interface. Eight to ten calibration standards were prepared in blank plasma of the relevant species providing a typical standard curve concentration range of 5-500 ng/mL. Pharmacokinetic parameters were calculated by noncompartmental methods using WinNonlin (version 5.3; Pharsight, St. Louis, Mo.). Parameters are presented as mean±S.D."}, "[7]": {"test": "Liver microsome stability, human", "assay_type": "in vitro ADME", "procedure": "(§5) The final incubation volume was 50 μL. Control incubations were included for each species where 0.1 M phosphate buffer pH 7.4 was added instead of NADPH (minus NADPH). Two control compounds were included for each species. […] The control (minus NADPH) was incubated for 45 minutes only. The reactions were stopped by transferring 25 μL of incubate to 50 μL methanol at the appropriate time points. The incubation plates were centrifuged at 2,500 rpm for 20 minutes at 4° C. to aid protein precipitation. Experimental half-lives were transformed to the corresponding intrinsic clearance values and subsequently scaled to predicted in vivo clearance values, using the well-stirred model as previously described (Houston, Biochemical Pharmacology 47(9): 1469-1479, 1994; Obach, Drug Metabolism and Disposition 27(11): 1350-1359, 1999), with appropriate species-specific scaling factors (Barter et al., Current Drug Metabolism 8(1): 33-45, 2007)."}, "[8]": {"test": "Plasma protein binding by equilibrium dialysis, mouse", "assay_type": "in vitro ADME, CD-1 mouse", "details": "male, CD-1, pH 7.4, read-out: Plasma free fraction", "procedure": "Plasma protein binding was assessed by equilibrium dialysis, utilizing the HT-dialysis cell format with a cellulose semi permeable membrane (molecular weight cut off of 5000 Da). Plasma was warmed to 37° C. and adjusted to pH 7.4 before use. Male Sprague-Dawley rat, male Beagle dog, male CD-1 mouse and mixed sex human plasma was used for the studies. A 5 μM test compound solution was prepared in isotonic phosphate buffer and rat, dog, mouse and human plasma (final DMSO concentration of 0.5%). The plasma-containing solution was introduced to one side of the membrane, and the plasma-free on the other. Incubations were performed for 2-16 hours in duplicate in order to allow the compound to reach equilibrium. Haloperidol was included as the control compound for each species. At the end of the equilibration time the cells were emptied. Following protein precipitation, the samples were centrifuged and analyzed by LC-MS/MS. The samples from the protein containing compartment were quantified using calibration standards prepared in plasma and the protein free compartments were quantified using calibration standards prepared in dialysis buffer."}, "[9]": {"test": "Liver microsome stability, dog", "assay_type": "in vitro ADME", "procedure": "as §5"}, "[10]": {"details": "male, plasma, Beagle dog, IV bolus"}, "[11]": {"details": "liver microsomes, pH 7.4, NADPH, 3 μM"}}, "note": "Read-outs that look alike come from different tables or passages of the source.", "data": [{"smiles": "CC(C)N(C[C@H]1O[C@@H](n2cnc3c(N)ncnc32)[C@H](O)[C@@H]1O)[C@H]1C[C@@H](CCc2nc3cc(C(C)(C)C)ccc3[nH]2)C1", "note": "[Compound A, (2R,3R,4S,5R)-2-(6-amino-9H-purin-9-yl)-5-((((1r,3S)-3-(2-(5-(tert-butyl)-1H-benzo[d]imidazol-2-yl)ethyl)cyclobutyl)(isopropyl)amino)methyl)tetrahydrofuran-3,4-diol]", "values": [{"measurement": "Abundance based on UV spectra", "setting": "[1]", "value": 59.4, "unit": "%"}, {"measurement": "Papp B→A at 120 min, 10 uM", "setting": "[2]", "value": 0.3, "unit": "×10⁻⁶ cm/s"}, {"measurement": "hepatocyte CLint at 3 μM", "setting": "[3]; CD-1, mouse, cryopreserved hepatocytes in suspension, pH 7.4, mouse, 3 μM", "value": "< 4", "unit": "µL/min/1e6 cells"}, {"measurement": "Scaled Hepatic CL from hepatocytes", "setting": "[3]; mouse", "value": 26, "unit": "mL/min/kg"}, {"measurement": "Hepatocyte CLint", "setting": "[3]; mouse, 3 μM", "value": 3.5, "unit": "uL/min/million cells"}, {"measurement": "Scaled Hepatic CL from hepatocytes", "setting": "[4]", "value": "<3", "unit": "mL/min/kg"}, {"measurement": "Abundance based on UV spectra", "setting": "[5]", "value": 59, "unit": "%"}, {"measurement": "CL", "setting": "[6]; Beagle dog, IV bolus", "value": "18.7 ± 1.7", "unit": "mL/min/kg"}, {"measurement": "clearance", "setting": "[6]; male, beagle, dog, plasma, iv, Beagle dog, IV bolus", "value": 19, "unit": "mL/min/kg"}, {"measurement": "Vd", "setting": "[6]; male, beagle, dog, plasma, iv, Beagle dog, IV bolus, read-out: VDss", "value": 2.44, "unit": "L/kg"}, {"measurement": "Vd", "setting": "[6]; male, beagle, dog, plasma, iv, dog, read-out: Unbound VDss", "value": 10.4, "unit": "L/kg"}, {"measurement": "AUC(0-inf)", "setting": "[6]; [10]", "value": "1.6 ± 0.15", "unit": "µM·h"}, {"measurement": "AUC(0-t)", "setting": "[6]; [10]", "value": "1.55 ± 0.16", "unit": "µM·h"}, {"measurement": "Cmax", "setting": "[6]; [10]", "value": "5.06 ± 0.6", "unit": "µM"}, {"measurement": "MRT", "setting": "[6]; [10]", "value": "2.17 ± 0.89", "unit": "h"}, {"measurement": "Tmax", "setting": "[6]; [10]", "value": 4.98, "unit": "min"}, {"measurement": "half-life", "setting": "[6]; [10]", "value": 13.6, "unit": "h"}, {"measurement": "microsomal CLint at 3 μM", "setting": "[7]; [11]", "value": 88, "unit": "µL/min/mg"}, {"measurement": "Scaled Hepatic CL from liver microsomes", "setting": "[7]; well-stirred model", "value": 17, "unit": "mL/min/kg"}, {"measurement": "fraction unbound at 5 μM", "setting": "[8]", "value": 0.138}, {"measurement": "microsomal CLint at 3 μM", "setting": "[9]; [11]", "value": 39, "unit": "µL/min/mg"}, {"measurement": "Scaled Hepatic CL from liver microsomes", "setting": "[9]; well-stirred model", "value": 20, "unit": "mL/min/kg"}]}]}
